These results are taken from PubChem BioAssay AID624129 (Sanford-Burnham Center for Chemical Genomics, 2012).

What all share (assay): potency against CXCR6 with APJ panel – cell-based, beta-arrestin, DiscoveRx, uHTS hits, dose response (AID 624129)
The target in test [1] is Beta-galactosidase (Escherichia coli) (UniProt Q8VNN2). The note with it: CXCR6 beta-arrestin (DiscoveRx) antagonist cell assay, b-galactosidase.
Test [2] addresses C-C chemokine receptor type 6 (Homo sapiens) (UniProt P51684). The note with it: CXCR6 beta-arrestin (DiscoveRx) antagonist cell assay.
The target in test [3] is Apelin receptor (Homo sapiens) (UniProt P35414). The note with it: CXCR6 beta-arrestin (DiscoveRx) antagonist cell assay, APJ.
Test [4] deals with C-X-C chemokine receptor type 6 (Homo sapiens) (UniProt O00574). As to conditions: CXCR6 beta-arrestin (DiscoveRx) antagonist cell assay; for inhibition: CXCR6, run 1, dose range 2, at 80 µM (top of the series).
Chain of C-X-C chemokine receptor type 6 (Homo sapiens) (O00574 whole entry, looked up): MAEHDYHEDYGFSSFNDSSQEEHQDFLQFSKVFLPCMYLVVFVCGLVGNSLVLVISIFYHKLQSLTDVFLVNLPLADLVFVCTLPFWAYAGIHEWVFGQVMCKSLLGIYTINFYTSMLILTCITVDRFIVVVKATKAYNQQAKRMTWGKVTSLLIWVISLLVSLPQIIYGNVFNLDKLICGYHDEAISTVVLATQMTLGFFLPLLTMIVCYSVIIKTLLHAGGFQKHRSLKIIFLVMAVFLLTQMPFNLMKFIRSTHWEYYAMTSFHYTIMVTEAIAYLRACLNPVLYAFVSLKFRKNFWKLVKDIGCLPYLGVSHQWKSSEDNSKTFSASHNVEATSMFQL
[5] abbreviates: dose range 1, mean IC50 across replicates.
[6] abbreviates: CCR6, dose range 1, mean IC50 across replicates.
Where [7] appears, read: CXCR6, dose range 1, mean IC50 across replicates.

Active and inactive are the calls of the source. No rule for the calls is given here. Bounds are passed on as bounds.

Chain of Beta-galactosidase (Escherichia coli) (Q8VNN2 whole entry, looked up): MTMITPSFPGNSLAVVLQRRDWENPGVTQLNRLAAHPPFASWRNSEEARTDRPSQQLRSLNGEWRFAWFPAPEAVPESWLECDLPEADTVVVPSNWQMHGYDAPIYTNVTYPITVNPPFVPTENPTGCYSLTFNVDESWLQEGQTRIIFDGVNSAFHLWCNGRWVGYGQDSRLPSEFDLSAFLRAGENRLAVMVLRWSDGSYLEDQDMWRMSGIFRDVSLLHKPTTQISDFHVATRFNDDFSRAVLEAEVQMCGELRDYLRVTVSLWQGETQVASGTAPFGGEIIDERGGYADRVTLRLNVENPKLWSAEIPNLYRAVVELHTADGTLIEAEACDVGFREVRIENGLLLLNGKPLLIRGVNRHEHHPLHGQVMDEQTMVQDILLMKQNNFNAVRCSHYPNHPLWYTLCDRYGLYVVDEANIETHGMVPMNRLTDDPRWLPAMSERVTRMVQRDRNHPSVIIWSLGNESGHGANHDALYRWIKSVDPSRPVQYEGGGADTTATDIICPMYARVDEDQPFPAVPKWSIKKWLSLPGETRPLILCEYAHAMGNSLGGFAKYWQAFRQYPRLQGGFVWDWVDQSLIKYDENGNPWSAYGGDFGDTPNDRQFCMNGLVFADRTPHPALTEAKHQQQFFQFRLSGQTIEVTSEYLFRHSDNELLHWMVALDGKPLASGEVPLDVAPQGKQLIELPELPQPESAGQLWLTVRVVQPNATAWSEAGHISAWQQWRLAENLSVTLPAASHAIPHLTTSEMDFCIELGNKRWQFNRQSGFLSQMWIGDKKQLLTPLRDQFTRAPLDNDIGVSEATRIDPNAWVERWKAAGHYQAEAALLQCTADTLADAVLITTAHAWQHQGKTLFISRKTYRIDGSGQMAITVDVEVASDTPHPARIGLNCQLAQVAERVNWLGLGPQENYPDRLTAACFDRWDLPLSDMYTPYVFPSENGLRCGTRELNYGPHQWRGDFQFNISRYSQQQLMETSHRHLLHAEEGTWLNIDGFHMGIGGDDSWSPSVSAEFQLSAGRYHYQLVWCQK

As a reminder, the IC50 is the concentration that inhibits the measured activity by half. What is called inhibition is the relative decrease from the control value, in per cent. In the case of `O=C(Cn1sc2ccccc2c1=O)NC12CC3CC(CC(C3)C1)C2`, the IC50 is > 80 µM (inactive) in test [1] (dose range 1); over 80 µM in test [1] (setting [5]); 1.54 µM in test [2] (CCR6, dose range 1); 1.66 µM in test [2] (setting [6]); 1.78 µM in test [2] (CCR6, run 2, dose range 1); 2.02 µM in test [3] (dose range 1). Also, the IC50 is 3.22 µM in test [3] (setting [5]); 5.54 µM in test [3] (run 2, dose range 1); 2.1 µM in test [3] (run 3, dose range 1); 2.69 µM in test [4] (CXCR6, dose range 1); 2.42 µM in test [4] (setting [7]); 2.16 µM in test [4] (CXCR6, run 2, dose range 1). For the same compound, the inhibition in test [4] came to 70.8%.

With `O=C1c2sc3nc4ccccc4n3c2C(=O)N1c1ccccc1Cl`, the IC50 in test [1] (dose range 1) was 30.8 µM; in test [1] (setting [5]), 30.8 µM; in test [2] (CCR6, dose range 1), 16.9 µM; in test [2] (setting [6]), 14.9 µM; in test [2] (CCR6, run 2, dose range 1) it was 12.9 µM; in test [3] (dose range 1) it was 23.5 µM. Moreover, the IC50 in test [3] (setting [5]) was 18 µM; in test [3] (run 2, dose range 1) it was 16.9 µM; in test [3] (run 3, dose range 1) it was 13.5 µM; in test [4] (setting [7]), 21 µM; in test [4] (CXCR6, run 2, dose range 1) it was 15 µM. Besides, the IC50 entry in test [4] (CXCR6, dose range 1) was “inactive”. For the same compound, the inhibition in test [4] amounted to 103%.

Take `CC(=O)OC1C2(CC3N4C(=O)C5(CO)SSC4(CC31O)C(=O)N5C)OC(C)C(C)(C)C2=O` (centres undefined): the IC50 in test [1] (dose range 1) is > 80 µM (inactive); in test [1] (setting [5]), over 80 µM; in test [2] (CCR6, dose range 1), 1.34 µM; in test [2] (setting [6]) it was 1.35 µM; in test [2] (CCR6, run 2, dose range 1), 1.36 µM; in test [3] (dose range 1), 1.1 µM. In addition, the IC50 is 1.22 µM in test [3] (setting [5]); 0.918 µM in test [3] (run 2, dose range 1); 1.64 µM in test [3] (run 3, dose range 1); 0.925 µM in test [4] (CXCR6, dose range 1); 0.724 µM in test [4] (setting [7]); 0.497 µM in test [4] (CXCR6, run 1, dose range 2). Besides, the IC50 in test [4] (CXCR6, run 2, dose range 1) is 0.936 µM; in test [4] (CXCR6, run 2, dose range 2), 0.54 µM.

Take `COc1cccc(-n2nc(C#N)c(Cl)cc2=O)c1`: the IC50 was > 80 µM (inactive) in test [1] (dose range 1); over 80 µM in test [1] (setting [5]); 6.31 µM in test [2] (CCR6, dose range 1); 9.54 µM in test [2] (setting [6]); 12.8 µM in test [2] (CCR6, run 2, dose range 1); 7.86 µM in test [3] (dose range 1). Moreover, the IC50 came to 7.23 µM in test [3] (setting [5]); 7.26 µM in test [3] (run 2, dose range 1); 6.56 µM in test [3] (run 3, dose range 1); 12.6 µM in test [4] (setting [7]); 9.33 µM in test [4] (CXCR6, run 1, dose range 2); 13.7 µM in test [4] (CXCR6, run 2, dose range 1). For the same compound, in test [4] (CXCR6, run 2, dose range 2), the IC50 was determined as 12 µM. Also, the IC50 result in test [4] (CXCR6, dose range 1) is “inactive”.

As for `N#CC(C#N)=C1C=CC=CN1/C(=C\c1ccco1)C(=O)c1ccc(Cl)cc1`, the IC50 in test [1] (dose range 1) was 15.1 µM; in test [1] (setting [5]), 15.1 µM; in test [2] (CCR6, dose range 1) it was 20.9 µM; in test [2] (setting [6]), 18.7 µM; in test [2] (CCR6, run 2, dose range 1) it was 16.4 µM; in test [3] (dose range 1), 30.1 µM. The IC50 is 32.5 µM in test [3] (setting [5]); 33.6 µM in test [3] (run 2, dose range 1); 33.7 µM in test [3] (run 3, dose range 1); 28 µM in test [4] (setting [7]); 25 µM in test [4] (CXCR6, run 2, dose range 1). In addition, in test [4] (CXCR6, dose range 1), the IC50 result is “inactive”. For the same compound, in test [4], the inhibition was found to be 125%.

On to `O=C(OCn1ncc(Cl)c(Cl)c1=O)c1cccc(C(F)(F)F)c1`, for which the IC50 in test [1] (dose range 1) is > 80 µM (inactive); in test [1] (setting [5]) it was over 80 µM; in test [2] (CCR6, dose range 1), 14 µM; in test [2] (setting [6]) it was 16.1 µM; in test [2] (CCR6, run 2, dose range 1), 18.2 µM; in test [3] (dose range 1) it was 21.6 µM. Further, the IC50 in test [3] (setting [5]) stood at 31.7 µM; in test [3] (run 2, dose range 1), 32.5 µM; in test [3] (run 3, dose range 1), 40.9 µM; in test [4] (setting [7]) it was 23.5 µM; in test [4] (CXCR6, run 2, dose range 1), 19 µM. Further, the IC50 entry in test [4] (CXCR6, dose range 1) is “inactive”. The inhibition in test [4] was determined as 128%.

For `C/C(=N\NC(=O)c1ccc(F)cc1)c1ccccn1`, the IC50 in test [1] (dose range 1) is > 80 µM (inactive); in test [1] (setting [5]), over 80 µM; in test [2] (CCR6, dose range 1) it was 0.987 µM; in test [2] (setting [6]), 1.19 µM; in test [2] (CCR6, run 2, dose range 1), 1.4 µM; in test [3] (dose range 1), 0.853 µM. In addition, the IC50 is 1.01 µM in test [3] (setting [5]); 1.4 µM in test [3] (run 2, dose range 1); 0.79 µM in test [3] (run 3, dose range 1); 1.55 µM in test [4] (CXCR6, dose range 1); 1.14 µM in test [4] (setting [7]); 0.861 µM in test [4] (CXCR6, run 1, dose range 2). In addition, the IC50 in test [4] (CXCR6, run 2, dose range 1) came out at 1.37 µM; in test [4] (CXCR6, run 2, dose range 2) it was 0.779 µM.
